Patent US9737504B2, “Dihydroorotic and acid dehydrogenase inhibitor” (NAI INC., priority 2012, dated 2017)
Where two headings read alike, the source gives them in different places.

Tests used:
human DHOD [1] = molecular target: T1, human DHOD (Homo sapiens, UniProt Q02127); test: Measurement of DHOD inhibitory activity (DCIP reduction, end point assay); assay type: biochemical; conditions: for inhibition at 0.2 µM: read-out: DHOD inhibition rate (%) 200 nM, 200 nM compound; for IC50: read-out: IC50 (nM) human DHOD (HsDHOD)
T1 sequence (Q02127 whole entry): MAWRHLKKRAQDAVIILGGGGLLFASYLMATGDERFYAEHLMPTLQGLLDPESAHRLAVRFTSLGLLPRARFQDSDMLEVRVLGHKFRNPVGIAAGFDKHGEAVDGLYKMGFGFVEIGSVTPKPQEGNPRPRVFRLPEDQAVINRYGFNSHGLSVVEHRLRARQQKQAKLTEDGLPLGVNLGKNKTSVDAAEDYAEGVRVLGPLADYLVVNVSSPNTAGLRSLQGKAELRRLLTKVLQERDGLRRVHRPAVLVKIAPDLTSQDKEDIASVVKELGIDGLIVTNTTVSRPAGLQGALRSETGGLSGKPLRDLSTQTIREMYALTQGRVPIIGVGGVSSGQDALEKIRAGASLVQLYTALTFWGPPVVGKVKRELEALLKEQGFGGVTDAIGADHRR
Description: The compounds of the present invention were used and measured for their DHOD inhibitory activity at concentrations of 200 nM and 1000 nM.
Reduction of DCIP was measured at 600 nm over 20 minutes.

human DHOD [2] = molecular target: T1, human DHOD; test: as above; assay type: biochemical; conditions: read-out: DHOD inhibition rate (%) 100 nM; 100 nM compound
KM-12 = test: JFCR39 cancer cell growth inhibition test, KM-12; assay type: cell-based; conditions: Homo sapiens, KM12; KM-12, Co (Colon)
[3] = test system: DLD-1 cells (human colorectal cancer cells); test: Inhibitory effect on DLD-1 cells, control vs hypoxic and subnutritional conditions; assay type: cell-based; conditions: for IC50: Homo sapiens
Description: (§1) For these reasons, cells of colorectal and pancreatic cancers, each being regarded as intractable, were used to test the inhibitory effect of compounds under hypoxic and subnutritional conditions. Moreover, the same test was also performed on normal skin cells.
The cells used were two types of cancer cells, i.e., DLD-1 cells (human colorectal cancer cells) and Panc-1 cells (human pancreatic cells), as well as HDF cells (human dermal fibroblast cells). Culture conditions were set as follows: 21% oxygen with glucose and […] (10% FBS) for the control group, and 1% oxygen without glucose and […] (10% FBS) for the hypoxic and subnutritional group. The results obtained are shown in Tables 3, 4 and 5, as well as FIGS. 1, 2 and 3.

bovine complex II-III = test: Inhibition of bovine complex II-III; assay type: biochemical
[4] = test system: HDF cells (human dermal fibroblast cells); test: Inhibitory effect on HDF cells, control vs hypoxic and subnutritional conditions; assay type: cell-based; conditions: for Selectivity = 21% glc(+)gln(+) IC50/1% glc(−)gln(−) IC50: HDF; for IC50: Homo sapiens, HDF normal skin cells
Description: as §1
The cells used were two types of cancer cells, i.e., DLD-1 cells (human colorectal cancer cells) and Panc-1 cells (human pancreatic cells), as well as HDF cells (human dermal fibroblast cells).

OVCAR-8 = test: JFCR39 cancer cell growth inhibition test, OVCAR-8; assay type: cell-based; conditions: Homo sapiens; OVCAR-8, Ov (Ovarian)
L0X-IMVI = test: JFCR39 cancer cell growth inhibition test, L0X-IMVI; assay type: cell-based; conditions: Homo sapiens, Me (Melanoma)
MKN28 = test: JFCR39 cancer cell growth inhibition test, MKN28; assay type: cell-based; conditions: Homo sapiens, MKN-28; MKN28, St (Stomac)
MKN74 = test: JFCR39 cancer cell growth inhibition test, MKN74; assay type: cell-based; conditions: Homo sapiens, MKN-74; MKN74, St (Stomac)
HCC2998 = test: JFCR39 cancer cell growth inhibition test, HCC2998; assay type: cell-based; conditions: Homo sapiens, HCC 2998; HCC2998, Co (Colon)
UMP levels = conditions: after treatment with 25 μM NSC368390; cited from earlier work
DLD-2 colon cancer = conditions: in vivo; cited from earlier work
[5] = test system: human MX-1 breast, LX-1 lung, BL/STX-1 stomach and CX-1 colon carcinomas; conditions: nude mice, 20 to 40 mg/kg/day; MX-1, LX-1, BL/STX-1, CX-1; cited from earlier work
[6] = read-out: IC50 DLD-1 [μM] 1% O2 glc(−)gln(−), DLD-1, 1% O2 glc(−)gln(−), 24 hours
[7] = read-out: IC50 DLD-1 [μM] 1% O2 glc(−)gln(−), DLD-1, 1% O2 glc(−)gln(−), 48 hours
[8] = read-out: IC50 [μM] 1% O2 glc(−)gln(−), 1% O2 glc(−)gln(−)

inhibition at 0.2 µM (human DHOD [1]) [%] | IC50 (human DHOD [1]) [nM] | inhibition at 0.1 µM (human DHOD [2]) [%] | GI50 (KM-12) [nM] | Selectivity = 21% glc(+)gln(+) IC50/1% glc(−)gln(−) IC50 ([3]; DLD-1, 24 hours) | Selectivity = 21% glc(+)gln(+) IC50/1% glc(−)gln(−) IC50 ([3]; DLD-1, 48 hours) | IC50 [3, 6] [µM] | IC50 [3, 7] [µM] | IC50 (bovine complex II-III) [nM] | GI50 (OVCAR-8) [nM] | GI50 (MKN74) [nM] | Structure (SMILES) | Selectivity = 21% glc(+)gln(+) IC50/1% glc(−)gln(−) IC50 [4] | IC50 [4, 8] [µM] | other results
75 | 64 | 107 | 32000 |  |  |  |  |  |  |  | C/C(=C\Cc1c(O)c(Cl)c(C)c(C=O)c1O)CC/C=C(\C)C(C)O (stereo not drawn) [277-9-OH, 3-Chloro-4,6-dihydroxy-2-methyl-5-(2E,6E)-(8-hydroxy-3,7-dimethyl-2,6-nonadienyl)benzaldehyde] |  |  | 
100 | 4.2 | 100 | 6400 | >59 | >156 | 1.7 | 0.64 | 1900 | 4400 |  | COC(=O)/C(C)=C/CC/C(C)=C/Cc1c(O)c(Cl)c(C)c(C=O)c1O [275-10-COOMe, Methyl (2E,6E)-8-(3-chloro-5-formyl-2,6-dihydroxy-4-methyl)phenyl-2,6-dimethyl-2,6-octa dienoate] | >32 |  | 
97 | 6.5 | 103 | 5700 | >53 | >109 | 1.9 | 0.92 | 4500 |  |  | CC(=O)OC(C)/C(C)=C/CC/C(C)=C/Cc1c(O)c(Cl)c(C)c(C=O)c1O (stereo not drawn) [277-11-OAc, (3E,7E)-9-(3-Chloro-5-formyl-2,6-dihydroxy-4-methyl)phenyl-3,7-dimethyl-3,7-nonadien-2-yl acetate] | >25 | 4 | GI50 (L0X-IMVI): 1500 nM
101 | 21.5 | 109 | 10000 |  |  |  |  |  | 9100 | 14000 | C/C(=C\COC(=O)C(C)C)CC/C(C)=C/Cc1c(O)c(Cl)c(C)c(C=O)c1O [287-12-OCOiPr, (2E,6E)-8-(3-Chloro-5-formyl-2,6-dihydroxy-4-methylphenyl)-3,6-dimethyl-2,6-octa dienyl isobutylate] |  |  | melting point: 62 to 63 °C; GI50 (MKN28): 10000 nM; GI50 (HCC2998): 15000 nM
104 | 6 | 94 | 2000 | 1100 | 1480 | 0.069 | 0.025 | 260 |  | 1300 | CC(C)=CCC/C(C)=C/CC/C(C)=C/Cc1c(O)c(Cl)c(C)c(C=O)c1O [280-12, (E,E)-3-Chloro-4,6-dihydroxy-5-(3,7,11-trimethyl-2,6,10-dodecatienyl)-2-methylbenzaldehyde] | 353 | 0.17 | IC50 ([3]; DLD-1, 21% O2 glc(+)gln(+), 24 hours, read-out: IC50 DLD-1 [μM] 21% O2 glc(+)gln(+)): 76 µM; IC50 ([3]; DLD-1, 21% O2 glc(+)gln(+), 48 hours, read-out: IC50 DLD-1 [μM] 21% O2 glc(+)gln(+)): 37 µM; IC50 ([4]; 21% O2 glc(+)gln(+), read-out: IC50 [μM] 21% O2 glc(+)gln(+)): 60 µM
 |  |  |  |  |  |  |  |  |  |  | Cc1c(-c2ccc(-c3ccccc3F)cc2)nc2ccc(F)cc2c1C(=O)[O-].[Na+] [NSC368390, 6-Fluoro-2-(2′-fluoro-1,1′-biphenyl-4-yl)-3-methyl-4-quinolinecarboxylic Acid Sodium Salt] |  |  | reduction of UMP levels (UMP levels): 50%; growth inhibition of DLD-2 colon cancer (DLD-2 colon cancer): 98%; inhibition of the growth of human carcinomas [5]: ≥ 90%
